Data taken from patent publication EP4635500A1, “THERAPEUTIC AGENT FOR BACTERIAL INFECTION” (Sumitomo Pharma Co., Ltd., priority 2022, dated 2024).
Values after ≈ are worked out from the molar mass of the structure shown. Where two headings read alike, the source gives them in different places.

What was measured:
P. aeruginosa = experiment: MIC, broth microdilution, CDC/FDA Antibiotic Resistance Isolate Bank (Example 7, Tables 10, 15); type: cell-based; conditions: for MIC: Pseudomonas aeruginosa, read-out: MIC
53 CRE and CPE strains = experiment: MICrange, MIC50, MIC80, MIC90 for 53 bacterial isolates (Example 5, Table 5); type: cell-based; conditions: 53 bacterial isolates
[1] = 26 metallo-carbapenemase-producing P. aeruginosa strains, β-lactamase inhibitor µg/mL in parentheses
[2] = 96 strains of P. aeruginosa, β-lactamase inhibitor µg/mL in parentheses

Structure (SMILES): NCC[C@H](O)C(=O)N[C@@H]1C[C@H](N)[C@@H](O[C@H]2O[C@H](CN)[C@@H](O)[C@H](O)[C@H]2O)[C@H](O)[C@H]1O[C@H]1O[C@H](CO)[C@@H](O)[C@H](N)[C@H]1O [Amikacin, amikacin]
- MIC against 26 metallo-carbapenemase-producing strains MIC50 (P. aeruginosa; [1]): >64 µg(mL)
- MIC against 26 metallo-carbapenemase-producing strains MIC90 (P. aeruginosa; [1]): >64 µg(mL)
- MIC against 96 strains of P. aeruginosa MIC50 (P. aeruginosa; [2]): 8 µg(mL)
- MIC against 96 strains of P. aeruginosa MIC90 (P. aeruginosa; [2]): >64 µg(mL)
- MIC (P. aeruginosa; P. aeruginosa KUB No. 579, AR Bank # 447): 8 µg/mL (≈ 13.7 µM)
- MIC (P. aeruginosa; P. aeruginosa KUB No. 5083, AR Bank # 250): > 64 µg/mL
- MIC (P. aeruginosa; P. aeruginosa KUB No. 5551, AR Bank # 54): 4 µg/mL (≈ 6.83 µM)
- MIC (P. aeruginosa; P. aeruginosa KUB No. 5561, AR Bank # 64): 1 µg/mL (≈ 1.71 µM)
- MIC (P. aeruginosa; P. aeruginosa KUB No. 5587, AR Bank # 90): 32 µg/mL (≈ 54.6 µM)
- MIC (P. aeruginosa; P. aeruginosa KUB No. 5589, AR Bank # 92): > 64 µg/mL
- MIC (P. aeruginosa; P. aeruginosa KUB No. 5591, AR Bank # 94): 32 µg/mL (≈ 54.6 µM)
- MIC (P. aeruginosa; P. aeruginosa KUB No. 5592, AR Bank # 95): 0.5 µg/mL (≈ 0.854 µM)
- MIC (P. aeruginosa; P. aeruginosa KUB No. 5597, AR Bank # 100): > 64 µg/mL
- MIC (P. aeruginosa; P. aeruginosa KUB No. 5600, AR Bank # 103): 32 µg/mL (≈ 54.6 µM)
- MIC (P. aeruginosa; P. aeruginosa KUB No. 5602, AR Bank # 105): 8 µg/mL (≈ 13.7 µM)
- MIC (P. aeruginosa; P. aeruginosa KUB No. 5605, AR Bank # 108): > 64 µg/mL
- MIC (P. aeruginosa; P. aeruginosa KUB No. 5607, AR Bank # 110): > 64 µg/mL
- MIC (P. aeruginosa; P. aeruginosa KUB No. 5608, AR Bank # 111): > 64 µg/mL
- MIC (P. aeruginosa; P. aeruginosa KUB No. 5662, AR Bank # 229): 16 µg/mL (≈ 27.3 µM)
- MIC (P. aeruginosa; P. aeruginosa KUB No. 5663, AR Bank # 230): > 64 µg/mL
- MIC (P. aeruginosa; P. aeruginosa KUB No. 5664, AR Bank # 231): 8 µg/mL (≈ 13.7 µM)
- MIC (P. aeruginosa; P. aeruginosa KUB No. 5665, AR Bank # 232): 8 µg/mL (≈ 13.7 µM)
- MIC (P. aeruginosa; P. aeruginosa KUB No. 5666, AR Bank # 23): 4 µg/mL (≈ 6.83 µM)
- MIC (P. aeruginosa; P. aeruginosa KUB No. 5667, AR Bank # 234): 8 µg/mL (≈ 13.7 µM)
- MIC (P. aeruginosa; P. aeruginosa KUB No. 5668, AR Bank # 235): 64 µg/mL (≈ 109 µM)
- MIC (P. aeruginosa; P. aeruginosa KUB No. 5669, AR Bank # 236): 8 µg/mL (≈ 13.7 µM)
- MIC (P. aeruginosa; P. aeruginosa KUB No. 5670, AR Bank # 237): 2 µg/mL (≈ 3.42 µM)
- MIC (P. aeruginosa; P. aeruginosa KUB No. 5671, AR Bank # 238): 4 µg/mL (≈ 6.83 µM)
- MIC (P. aeruginosa; P. aeruginosa KUB No. 5672, AR Bank # 239): > 64 µg/mL
- MIC (P. aeruginosa; P. aeruginosa KUB No. 5673, AR Bank # 240): 64 µg/mL (≈ 109 µM)
- MIC (P. aeruginosa; P. aeruginosa KUB No. 5674, AR Bank # 241): 32 µg/mL (≈ 54.6 µM)
- MIC (P. aeruginosa; P. aeruginosa KUB No. 5675, AR Bank # 242): 64 µg/mL (≈ 109 µM)
- MIC (P. aeruginosa; P. aeruginosa KUB No. 5676, AR Bank # 243): 32 µg/mL (≈ 54.6 µM)
- MIC (P. aeruginosa; P. aeruginosa KUB No. 5677, AR Bank # 244): 8 µg/mL (≈ 13.7 µM)
- MIC (P. aeruginosa; P. aeruginosa KUB No. 5678, AR Bank # 245): > 64 µg/mL
- MIC (P. aeruginosa; P. aeruginosa KUB No. 5679, AR Bank # 246): > 64 µg/mL
- MIC (P. aeruginosa; P. aeruginosa KUB No. 5680, AR Bank # 247): 4 µg/mL (≈ 6.83 µM)
- MIC (P. aeruginosa; P. aeruginosa KUB No. 5681, AR Bank # 248): 64 µg/mL (≈ 109 µM)
- MIC (P. aeruginosa; P. aeruginosa KUB No. 5682, AR Bank # 249): > 64 µg/mL
- MIC (P. aeruginosa; P. aeruginosa KUB No. 5684, AR Bank # 251): 8 µg/mL (≈ 13.7 µM)
- MIC (P. aeruginosa; P. aeruginosa KUB No. 5685, AR Bank # 252): 0.5 µg/mL (≈ 0.854 µM)
- MIC (P. aeruginosa; P. aeruginosa KUB No. 5687, AR Bank # 254): > 64 µg/mL
- MIC (P. aeruginosa; P. aeruginosa KUB No. 5688, AR Bank # 255): > 64 µg/mL
- MIC (P. aeruginosa; P. aeruginosa KUB No. 5689, AR Bank # 256): 2 µg/mL (≈ 3.42 µM)
- MIC (P. aeruginosa; P. aeruginosa KUB No. 5690, AR Bank # 257): 8 µg/mL (≈ 13.7 µM)
- MIC (P. aeruginosa; P. aeruginosa KUB No. 5691, AR Bank # 258): 4 µg/mL (≈ 6.83 µM)
- MIC (P. aeruginosa; P. aeruginosa KUB No. 5692, AR Bank # 259): 2 µg/mL (≈ 3.42 µM)
- MIC (P. aeruginosa; P. aeruginosa KUB No. 5693, AR Bank # 260): 64 µg/mL (≈ 109 µM)
- MIC (P. aeruginosa; P. aeruginosa KUB No. 5694, AR Bank # 261): 16 µg/mL (≈ 27.3 µM)
- MIC (P. aeruginosa; P. aeruginosa KUB No. 5695, AR Bank # 262): 4 µg/mL (≈ 6.83 µM)
- MIC (P. aeruginosa; P. aeruginosa KUB No. 5696, AR Bank # 263): 32 µg/mL (≈ 54.6 µM)
- MIC (P. aeruginosa; P. aeruginosa KUB No. 5697, AR Bank # 264): 2 µg/mL (≈ 3.42 µM)
- MIC (P. aeruginosa; P. aeruginosa KUB No. 5698, AR Bank # 265): 8 µg/mL (≈ 13.7 µM)
- MIC (P. aeruginosa; P. aeruginosa KUB No. 5699, AR Bank # 266): 8 µg/mL (≈ 13.7 µM)
- MIC (P. aeruginosa; P. aeruginosa KUB No. 5700, AR Bank # 267): 16 µg/mL (≈ 27.3 µM)
- MIC (P. aeruginosa; P. aeruginosa KUB No. 5701, AR Bank # 268): 8 µg/mL (≈ 13.7 µM)
- MIC (P. aeruginosa; P. aeruginosa KUB No. 5702, AR Bank # 269): 4 µg/mL (≈ 6.83 µM)
- MIC (P. aeruginosa; P. aeruginosa KUB No. 5703, AR Bank # 270): 16 µg/mL (≈ 27.3 µM)
- MIC (P. aeruginosa; P. aeruginosa KUB No. 5704, AR Bank # 271): 4 µg/mL (≈ 6.83 µM)
- MIC (P. aeruginosa; P. aeruginosa KUB No. 5705, AR Bank # 272): 4 µg/mL (≈ 6.83 µM)
- MIC (P. aeruginosa; P. aeruginosa KUB No. 5747, AR Bank # 351): 64 µg/mL (≈ 109 µM)
- MIC (P. aeruginosa; P. aeruginosa KUB No. 5748, AR Bank # 352): 4 µg/mL (≈ 6.83 µM)
- MIC (P. aeruginosa; P. aeruginosa KUB No. 5749, AR Bank # 353): 64 µg/mL (≈ 109 µM)
- MIC (P. aeruginosa; P. aeruginosa KUB No. 5750, AR Bank # 354): 8 µg/mL (≈ 13.7 µM)
- MIC (P. aeruginosa; P. aeruginosa KUB No. 5751, AR Bank # 355): 8 µg/mL (≈ 13.7 µM)
- MIC (P. aeruginosa; P. aeruginosa KUB No. 5752, AR Bank # 356): 2 µg/mL (≈ 3.42 µM)
- MIC (P. aeruginosa; P. aeruginosa KUB No. 5753, AR Bank # 357): > 64 µg/mL
- MIC (P. aeruginosa; P. aeruginosa KUB No. 5754, AR Bank # 358): 4 µg/mL (≈ 6.83 µM)
- MIC (P. aeruginosa; P. aeruginosa KUB No. 5755, AR Bank # 359): 4 µg/mL (≈ 6.83 µM)
- MIC (P. aeruginosa; P. aeruginosa KUB No. 5756, AR Bank # 360): 4 µg/mL (≈ 6.83 µM)
- MIC (P. aeruginosa; P. aeruginosa KUB No. 5785, AR Bank # 439): > 64 µg/mL
- MIC (P. aeruginosa; P. aeruginosa KUB No. 5786, AR Bank # 440): 8 µg/mL (≈ 13.7 µM)
- MIC (P. aeruginosa; P. aeruginosa KUB No. 5787, AR Bank # 441): 2 µg/mL (≈ 3.42 µM)
- MIC (P. aeruginosa; P. aeruginosa KUB No. 5788, AR Bank # 443): 64 µg/mL (≈ 109 µM)
- MIC (P. aeruginosa; P. aeruginosa KUB No. 5789, AR Bank # 444): > 64 µg/mL
- MIC (P. aeruginosa; P. aeruginosa KUB No. 5790, AR Bank # 445): 64 µg/mL (≈ 109 µM)
- MIC (P. aeruginosa; P. aeruginosa KUB No. 5793, AR Bank # 449): 8 µg/mL (≈ 13.7 µM)
- MIC (P. aeruginosa; P. aeruginosa KUB No. 5798, AR Bank # 455): 0.25 µg/mL (≈ 0.427 µM)
- MIC (P. aeruginosa; P. aeruginosa KUB No. 5799, AR Bank # 456): 8 µg/mL (≈ 13.7 µM)
- MIC (P. aeruginosa; P. aeruginosa KUB No. 5800, AR Bank # 457): 2 µg/mL (≈ 3.42 µM)
- MIC (P. aeruginosa; P. aeruginosa KUB No. 5801, AR Bank # 458): 16 µg/mL (≈ 27.3 µM)
- MIC (P. aeruginosa; P. aeruginosa KUB No. 5802, AR Bank # 459): 8 µg/mL (≈ 13.7 µM)
- MIC (P. aeruginosa; P. aeruginosa KUB No. 5804, AR Bank # 862): 4 µg/mL (≈ 6.83 µM)
- MIC (P. aeruginosa; P. aeruginosa KUB No. 5805, AR Bank # 863): > 64 µg/mL
- MIC (P. aeruginosa; P. aeruginosa KUB No. 5806, AR Bank # 864): 0.5 µg/mL (≈ 0.854 µM)
- MIC (P. aeruginosa; P. aeruginosa KUB No. 5813, AR Bank # 508): 0.064 µg/mL (≈ 0.109 µM)
- MIC (P. aeruginosa; P. aeruginosa KUB No. 5814, AR Bank # 509): > 0.064 µg/mL
- MIC (P. aeruginosa; P. aeruginosa KUB No. 5815, AR Bank # 510): 0.008 µg/mL (≈ 0.0137 µM)
- MIC (P. aeruginosa; P. aeruginosa KUB No. 5816, AR Bank # 511): 0.004 µg/mL (≈ 0.00683 µM)
- MIC (P. aeruginosa; P. aeruginosa KUB No. 5817, AR Bank # 512): 0.004 µg/mL (≈ 0.00683 µM)
- MIC (P. aeruginosa; P. aeruginosa KUB No. 5818, AR Bank # 513): 0.032 µg/mL (≈ 0.0546 µM)
- MIC (P. aeruginosa; P. aeruginosa KUB No. 5819, AR Bank # 514): 0.004 µg/mL (≈ 0.00683 µM)
- MIC (P. aeruginosa; P. aeruginosa KUB No. 5820, AR Bank # 515): 0.008 µg/mL (≈ 0.0137 µM)
- MIC (P. aeruginosa; P. aeruginosa KUB No. 5821, AR Bank # 516): 0.002 µg/mL (≈ 0.00342 µM)
- MIC (P. aeruginosa; P. aeruginosa KUB No. 5823, AR Bank # 518): 0.016 µg/mL (≈ 0.0273 µM)
- MIC (P. aeruginosa; P. aeruginosa KUB No. 5831, AR Bank # 526): 0.004 µg/mL (≈ 0.00683 µM)
- MIC (P. aeruginosa; P. aeruginosa KUB No. 5832, AR Bank # 527): 0.0005 µg/mL (≈ 0.000854 µM)
- MIC (P. aeruginosa; P. aeruginosa KUB No. 5833, AR Bank # 528): 0.008 µg/mL (≈ 0.0137 µM)
- MIC (P. aeruginosa; P. aeruginosa KUB No. 5834, AR Bank # 529): 0.004 µg/mL (≈ 0.00683 µM)
- MIC50 (53 CRE and CPE strains; read-out: MIC50): 2 µg/mL (≈ 3.42 µM)
- MIC80 (53 CRE and CPE strains; read-out: MIC80): 32 µg/mL (≈ 54.6 µM)
- MIC90 (53 CRE and CPE strains; read-out: MIC90): > 64 µg/mL
